In patent US20150065436A1, “INHIBITING INTERACTION BETWEEN HIF-1ALPHA AND p300/CBP WITH HYDROGEN BOND SURROGATE-BASED HELICES” (UNIVERSITY OF SOUTHERN CALIFORNIA, priority 2013, published 2015):

Experiments:
[1] = molecular target: T1, p300-CH1/Flu-HIF C-TAD complex (Homo sapiens, UniProt Q09472); assay: Fluorescence polarization competitive inhibition assay; assay type: binding
T1 construct: human p300 CH1 domain (amino acid residues 323-423); GST (cleaved yes); made in house; host or cells: E. coli BL21 (DE3) for p300-CH1

[2] = system: hypoxia-inducible promoter activity in MDA-MB-231-HRE-Luc cells; assay: Luciferase-based HRE promoter activity assay; details: 50 μM, hypoxia by GasPak EZ pouch
Description: MDA-MB-231-HRE-Luc cells were grown in high glucose DMEM supplemented with 10% fetal bovine serum and 0.4 g/L geneticin (RPI). Hypoxia was mimicked with desferrioxamine mesylate (DFO, Sigma) at a concentration of 300 μM or by GasPak EZ pouch (BD Biosciences). Cell growth and morphology were monitored by phase-contrast microscopy.
MDA-MB-231-HRE-Luc cells were plated in 24-well plates (BD Falcon) at a seeding density of 35,000 cells/mL. Cells were allowed to adhere and form a monolayer before adding the compounds (˜70% confluence). […] All samples contained a final concentration of 0.1% DMSO; vehicle samples were treated with cell culture media containing 0.1% DMSO. Cells were incubated for 6 hours at 37° C. and 5% CO2 and then hypoxia was induced by placing the cells into GasPak EZ pouch for another 18 hours. The lysates were isolated by using cell culture lysis reagent (Promega). Prior to collecting cell lysate, halt protease inhibitor cocktail (Thermo Scientific) was added to the cell culture lysis reagent in order to ensure the stability of proteins. Cell lysates were collected into low-adhesion pre-chilled Eppendorf tubes (USA Scientific) and centrifuged at 13,000 rpm for 5 minutes at 4° C. Supernatant was collected into another set of pre-chilled Eppendorf tubes and the pellet was discarded. Luciferase assay reagent (100 μL, Promega) was added to 20 μL of cell lysate and luminescence intensity was measured by Turner TD-20e luminometer. The results were normalized to total protein concentration determined by BCA assay. Briefly, 10 μL of cell lysate was added to 200 μL of BCA reagent. Absorbance was measured at 562 nm using a BioTek Synergy 2 microplate reader and normalized to BSA solutions at a concentration range of 125 μg/mL to 2000 μg/mL as standards.

[3] = system: LOX; assay: Real-time qRT-PCR of LOX expression in hypoxic HeLa cells; assay type: cell-based, human; details: hypoxia
[4] = system: HIF-1α; assay: Western blot analysis of HIF-1α levels; assay type: cell-based, human; details: HeLa cells, 10 μM, hypoxia mimicked with DFO 300 μM
Description: HeLa cells were plated in a 75 cm^2 culture flask and allowed to reach 70% confluence. Cells were treated with vehicle or HBS 1 at 10 μM concentration in the cell culture media containing 10% FBS. […] Cells were incubated for 6 hours and hypoxia was induced with 300 μM. DFO. After incubation for an additional 18 hours, cells were lysed and cytoplasmic and nuclear extracts were collected using a NE-PER kit (Pierce) according to the manufacturer's protocol and blotted as described in Dubey et al., “Suppression of Tumor Growth by Designed Dimeric Epidithiodiketopiperazine Targeting Hypoxia-Inducible Transcription Factor Complex,” J. Am. Chem. Soc. 135(11):4537-49 (2013), which is hereby incorporated by reference in its entirety.
To exclude the possibility that the observed down-regulation in the expression of hypoxia-inducible genes was due to a change in the levels of HIF-1α protein itself, a western blot analysis of HIF-1α was performed in hypoxic cells treated with HBS 1. […] As expected, the levels of induced HIF-1α protein were unaffected by treatment with HBS 1 (FIG. 16).

[5] = system: VEGFA; assay: Real-time qRT-PCR of VEGFA expression in hypoxic HeLa cells; assay type: cell-based, human; details: for reduction of VEGF expression levels: DFO hypoxia
[6] = molecular target: T2, p300-CH1 (Homo sapiens, UniProt Q09472); assay: Tryptophan fluorescence binding assay; details: for Kd: 15N-labeled p300 CH1 domain, Trp403 fluorescence, read-out: dissociation constant, Kd
T2 construct: human p300 CH1 domain (amino acid residues 323-423); GST (cleaved yes); made in house; host or cells: E. coli BL21 (DE3)
From the text: The DNA sequence of human p300 CH1 domain ([…]) was designed as an insert and subcloned into a pUC57 plasmid by Genscript, Inc. After transformation of the plasmid in JM109 bacteria (Promega), the gene sequence was subcloned into BamHI and EcoRI restriction sites of pGEX-4T-2 expression vector (Amersham). The pGEX 4T-2-p300 fusion vector was transformed into BL21 (DE3)-competent E. coli (Novagen) in M9 minimal media with ^15NH4Cl as the main nitrogen source. Protein production was induced with 1 mM IPTG at O.D. 600 of 1 for 16 hours at 15° C. Production of the desired p300-CH1-GST fusion product was verified by SDS-PAGE. Bacteria were harvested and resuspended in the lysis buffer with 20 mM Phosphate buffer (Research Products International, Corp.), 100 μM DTT (Fisher), 100 μM ZnSO4 (Sigma), 0.5% TritonX 100 (Sigma), […] Pepstatin A (Research Products International, Corp.), […] Leupeptin A (Research Products International, Corp.), 500 μM PMSF (Sigma), and 0.5% glycerol at pH 8.0. Pellets were lysed by sonication and centrifuged at 4° C., 20,000 rpm, for 20 minutes. Fusion protein was collected from the bacterial supernatant and purified by affinity chromatography using glutathione Sepharose 4B beads (Amersham) prepared according to the manufacturer's directions. GST-tag was cleaved by thrombin and protein was eluted from resin. […] Spectra were recorded on a QuantaMaster 40 spectrofluorometer (Photon Technology International) in a 10 mm quartz fluorometer cell at 25° C. with 4 nm excitation and 4 nm emission slit widths from 200 to 400 nm at intervals of 1 nm/s. Samples were excited at 295 nm and fluorescence emission was measured from 200-400 nm and recorded at 335 nm. Peptide stock solutions were prepared in DMSO. Aliquots containing 1 μL DMSO stocks were added to 400 μL of 1 μM p300-CH1 in 50 mM Tris and 100 mM NaCl (pH 8.0). After each addition, the sample was allowed to equilibrate for 5 minutes before UV analysis. Background absorbance and sample dilution effects were corrected by titrating DMSO into p300-CH1 in an analogous manner. Final fluorescence is reported as the absolute value of [(F1-F0)/F1]*100, where F1 is the final fluorescence upon titration and F0 is the fluorescence of the blank DMSO titration. EC50 values for each peptide were determined by fitting the experimental data to a sigmoidal dose-response nonlinear regression model on GraphPad Prism 5.0, and the dissociation constants, KD, were obtained from equation (1) […] The affinity of peptides for the ^15N-labeled p300 CH1 domain was evaluated using tryptophan fluorescence spectroscopy. […] The binding affinity of HIF-1αC-TAD to CH1 in this assay is consistent with that obtained from a fluorescence polarization assay using fluorescein-labeled HIF-1αC-TAD (FIG. 11 and FIG. 12) and those using isothermal titration microcalorimetry.

[7] = system: SLC2A1 (GLUT1); assay: Real-time qRT-PCR of SLC2A1 (GLUT1) expression in hypoxic HeLa cells; assay type: cell-based, human; details: hypoxia, dose-dependent (10 and 50 μM tested)

T2 sequence (Q09472 323-423): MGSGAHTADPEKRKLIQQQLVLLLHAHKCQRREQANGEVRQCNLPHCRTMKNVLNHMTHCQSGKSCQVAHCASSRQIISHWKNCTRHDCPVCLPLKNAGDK
T1 sequence (Q09472 323-423, one chain of several): as the sequence (Q09472 323-423) above

Row | Structure (SMILES) | Ki [1] | reduction of luciferase expression [2] | downregulation of LOX expression ([3]; 10 μM (first of two doses)) | downregulation of LOX expression ([3]; 50 μM (second of two doses)) | levels of induced HIF-1α protein [4] | reduction of VEGF expression levels ([5]; 10 μM) | reduction of VEGF expression levels ([5]; 50 μM) | inhibition of VEGF expression under two hypoxia mimetic conditions ([5]; DFO and prolonged incubation in an anaerobic pouch) | Kd [6] | increase in binding affinity by stabilization of the peptide conformation ([6]; HBS 1 versus unconstrained peptide 3) | inhibition of SLC2A1 expression [7] | inhibition of the complex on titration ([1]; preformed p300-CH1/Flu-HIF C-TAD complex) | activity on LOX expression ([3]; concentration not given) | binding affinity relative to HBS 1 ([6]; CH1 domain, compared with HBS 1)
1 | CC(C)C[C@H](NC(=O)[C@H](C)NC(=O)[C@H](CCCNC(=N)N)NC(=O)[C@H](C)N1CC=CCCC(=O)N[C@@H](CCC(=O)O)C(=O)N[C@@H](CC(C)C)C1=O)C(=O)N[C@@H](CC(=O)O)C(=O)N[C@@H](CCC(N)=O)C(N)=O [HBS 1, XELA*RALDQ-NH2] | 3500 ± 1200 nM | 25% | 55% | 70% | unaffected | 50% | greater than 60% | dose-dependent inhibition | 690 ± 25 nM | 9 fold | 50-60% | – | – | –
2 | CC(C)C[C@@H]1NC(=O)[C@H](CCC(=O)O)NC(=O)CCC=CCN([C@@H](C)C(=O)N[C@@H](CCCNC(=N)N)C(=O)N[C@@H](C)C(=O)N[C@@H](C)C(=O)N[C@@H](CC(=O)O)C(=O)N[C@@H](CCC(N)=O)C(N)=O)C1=O [HBS 2, XELA*RAADQ-NH2] | – | less effective | – | – | – | – | 10% | – | 2820 ± 140 nM | – | no activity | did not lead to reproducible inhibition | no activity | four-fold weaker
